Five compounds from ChEMBL document CHEMBL1123746, “Synthesis of 5-beta-D-ribofuranosylnicotinamide and its N-methyl derivative. The isosteric and isoelectronic analogues of nicotinamide nucleoside” (1987) can be followed below.

The test system of one experiment is CCRF-CEM. The experiment is described as follows: In vitro inhibitory activity against the growth of CCRF-CEM tumor cells at a concentration of 13.0 ug/mL; Inactive. It counts as functional, cell-based. Particulars: Homo sapiens.
The test system of the next experiment is MOLT-3. The experiment is described as follows: In vitro inhibitory activity against the growth of F-Molt-3 tumor cells at a concentration of 15.0 ug/mL; Inactive. Particulars: Homo sapiens. It counts as functional, cell-based.
Another experiment has as its system HL-60. The experiment is described as follows: In vitro inhibitory activity against the growth of HL-60 tumor cells at a concentration of 24.0 ug/mL; Inactive. It counts as functional, cell-based. Particulars: Homo sapiens.
A further experiment has as its system P815. The experiment is described as follows: In vitro inhibitory activity against the growth of P-815 tumor cells at a concentration of 16.0 ug/mL; Inactive. It counts as functional, cell-based. Particulars: Mus musculus.
Experiment [1] in a line: Compound tested for the inhibition of IMP-dehydrogenase causing a profound depletion of GMP anf accumulation of IMP; Active. It counts as functional.
Experiment [2] in a line: Compound tested for the inhibition of ADP-ribosylation in protein synthesis; Inactive. It counts as functional.

Activity calls are given as the source filed them. The rule behind the calls is not given here.

For the compound `C[n+]1cc(C(N)=O)cc(C2O[C@H](CO)[C@@H](O)[C@H]2O)c1` (single isomer, unassigned), the inhibition entry with CCRF-CEM, in the experiment with MOLT-3, with HL-60 and with P815 was “inactive” each time.

For the compound `NC(=O)c1csc([C@H]2O[C@@H](COP(=O)(O)OP(=O)(O)OC[C@H]3O[C@@H](n4cnc5c(N)ncnc54)[C@H](O)[C@@H]3O)[C@H](O)[C@@H]2O)n1`, in experiment [1], the outcome was Active.

On to `NC(=O)c1cncc([C@@H]2O[C@H](COP(=O)(O)OP(=O)(O)OC[C@@H]3O[C@H](n4cnc5c(N)ncnc54)[C@@H](O)[C@H]3O)[C@@H](O)[C@H]2O)c1`, for which the result in experiment [2] was inactive.

On to `NC(=O)c1csc([C@@H]2O[C@H](CO)[C@@H](O)[C@H]2O)n1`, for which the result in experiment [1] was Active.

For the compound `C[n+]1cc(C(N)=O)cc([C@@H]2O[C@H](COP(=O)([O-])OP(=O)(O)OC[C@@H]3O[C@H](n4cnc5c(N)ncnc54)[C@@H](O)[C@H]3O)[C@@H](O)[C@H]2O)c1`, in experiment [2], the outcome was inactive.
